Data reported in ChEMBL document CHEMBL3046782, “Fungicidial Activity of Benthiavalicarb-isopropyl against Phytophthora infestans and Its Controlling Activity against Late Blight Diseases” (J Pestic Sci, 2005).
Values after ≈ are worked out from the molar mass of the structure shown. Active and inactive are the calls of the source. No cut-off for these calls is given here.

Key:
Phytophthora infestans [1] = assay: Antifungal activity against Phytophthora infestans in potato tuber slices assessed as inhibition of cystospore germination at 1 ug/ml after 6 hr relative to control; format: functional
Phytophthora infestans [2] = assay: Antifungal activity against Phytophthora infestans in potato tuber slices assessed as inhibition of cystospore germination at 10 ug/ml after 6 hr relative to control; format: functional
Phytophthora infestans [3] = assay: Antifungal activity against Phytophthora infestans r1234-2 assessed as inhibition of mycelial growth after 5 to 7 days; format: functional, organism-based; settings: for IC50: read-out: I50
Phytophthora infestans [4] = assay: Antifungal activity against Phytophthora infestans in potato tuber slices assessed as inhibition of zoosporangia release at 100 ug/ml after 3 hr relative to control; format: functional
Phytophthora infestans [5] = assay: Antifungal activity against Phytophthora infestans in potato tuber slices assessed as inhibition of zoosporangia release at 1 ug/ml after 3 hr relative to control; format: functional
Phytophthora infestans [6] = assay: Antifungal activity against Phytophthora infestans in potato tuber slices assessed as inhibition of zoosporangia germination at 1 ug/ml after 6 hr relative to control; format: functional
Phytophthora infestans [7] = assay: Antifungal activity against Phytophthora infestans C-3 assessed as inhibition of mycelial growth after 5 to 7 days; format: functional, organism-based; settings: for IC50: read-out: I50
Phytophthora infestans [8] = assay: Antifungal activity against Phytophthora infestans infected potato plant assessed as control of late blight at 50 to 75 g/ha treated 4 to 5 times at 7 day interval; format: functional, organism-based
Phytophthora infestans [9] = assay: Antifungal activity against Phytophthora infestans in potato tuber slices assessed as inhibition of zoosporangia germination at 10 ug/ml after 6 hr relative to control; format: functional
Phytophthora infestans [10] = assay: Antifungal activity against Phytophthora infestans infected tomato assessed as control of late blight at 300 mg/l after 24 hr by greenhouse test; format: functional, organism-based
Phytophthora infestans [11] = assay: Antifungal activity against Phytophthora infestans r1234 assessed as inhibition of mycelial growth after 5 to 7 days; format: functional, organism-based; settings: for IC50: read-out: I50
Phytophthora nicotianae = assay: Antifungal activity against Phytophthora nicotianae IFO 30595 assessed as inhibition of mycelial growth after 5 to 7 days; format: functional, organism-based; settings: for IC50: read-out: I50
Phytophthora palmivora = assay: Antifungal activity against Phytophthora palmivora IFO 30285 assessed as inhibition of mycelial growth after 5 to 7 days; format: functional, organism-based; settings: for IC50: read-out: I50
Phytophthora infestans [12] = assay: Antifungal activity against Phytophthora infestans in potato tuber slices assessed as inhibition of cystospore germination at 0.1 ug/ml after 6 hr relative to control; format: functional
Phytophthora infestans [13] = assay: Antifungal activity against Phytophthora infestans infected tomato assessed as control of late blight at 25 to 50 g/ha treated 4 to 5 times at 7 day interval; format: functional, organism-based
Phytophthora porri = assay: Antifungal activity against Phytophthora porri IFO 30416 assessed as inhibition of mycelial growth after 5 to 7 days; format: functional, organism-based; settings: for IC50: read-out: I50
Phytophthora megasperma = assay: Antifungal activity against Phytophthora megasperma assessed as inhibition of mycelial growth after 5 to 7 days; format: functional, organism-based; settings: for IC50: read-out: I50
Phytophthora infestans [14] = assay: Antifungal activity against Phytophthora infestans infected tomato assessed as translaminar activity of controlling late blight at 3 to 100 mg/l after 24 hr; format: functional, organism-based
Phytophthora infestans [15] = assay: Antifungal activity against Phytophthora infestans in potato tuber slices assessed as inhibition of zoosporangia release at 10 ug/ml after 3 hr relative to control; format: functional
Phytophthora infestans [16] = assay: Antifungal activity against Phytophthora infestans in potato tuber slices assessed as inhibition of zoosporangia motility at 10 ug/ml after 3 hr relative to control; format: functional, organism-based
Phytophthora infestans [17] = assay: Antifungal activity against Phytophthora infestans TK-301 assessed as inhibition of mycelial growth after 5 to 7 days; format: functional, organism-based
Phytophthora cactorum = assay: Antifungal activity against Phytophthora cactorum IFO 30474 assessed as inhibition of mycelial growth after 5 to 7 days; format: functional, organism-based; settings: for IC50: read-out: I50
Phytophthora infestans [18] = assay: microbe, parasite or virus in culture; format: functional; settings: Tuber, in Solanum tuberosum, 48 h
Phytophthora infestans [19] = assay: Antifungal activity against Phytophthora infestans in potato tuber slices assessed as inhibition of zoosporangia motility at 1 ug/ml after 3 hr relative to control; format: functional, organism-based
Phytophthora infestans [20] = assay: microbe, parasite or virus in culture; format: functional; settings: Tuber, in Solanum tuberosum, 48 h; remark: listed apart in the source
Phytophthora katsurae = assay: Antifungal activity against Phytophthora katsurae assessed as inhibition of mycelial growth after 5 to 7 days; format: functional, organism-based; settings: for IC50: read-out: I50
Phytophthora infestans [21] = assay: Antifungal activity against Phytophthora infestans in potato tuber slices assessed as inhibition of zoosporangia germination at 0.1 ug/ml after 6 hr relative to control; format: functional
Phytophthora infestans [22] = assay: microbe, parasite or virus in culture; format: functional; settings: Tuber, in Solanum tuberosum, 48 h; remark: listed apart in the source
Phytophthora infestans [23] = assay: Antifungal activity against Phytophthora infestans infected tomato assessed as control of late blight at 10 mg/l after 12 hr by greenhouse test; format: functional, organism-based
Phytophthora infestans [24] = assay: Antifungal activity against Phytophthora infestans in potato tuber slices assessed as inhibition of zoosporangia motility at 100 ug/ml after 3 hr relative to control; format: functional, organism-based
Phytophthora infestans [25] = assay: Antifungal activity against Phytophthora infestans infected tomato assessed as systemic activity of controlling late blight at 100 mg/l after 24 hr; format: functional, organism-based
Phytophthora infestans [26] = assay: Antifungal activity against Phytophthora infestans r0-3 assessed as inhibition of mycelial growth after 5 to 7 days; format: functional, organism-based; settings: for IC50: read-out: I50
Phytophthora capsici = assay: Antifungal activity against Phytophthora capsici IFO 8386 assessed as inhibition of mycelial growth after 5 to 7 days; format: functional, organism-based; settings: for IC50: read-out: I50

## CC(C)OC(=O)N[C@H](C(=O)N[C@H](C)c1nc2ccc(F)cc2s1)C(C)C [BENTHIAVALICARB-ISOPROPYL]
Phytophthora infestans [1]
  inhibition at 1 µg/mL: 100%
Phytophthora infestans [2]
  inhibition at 10 µg/mL: 100%
Phytophthora infestans [3]
  MIC: 0.1 µg/mL (≈ 0.262 µM)
  IC50: 0.03 µg/mL (≈ 0.0786 µM)
Phytophthora infestans [4]
  inhibition at 100 µg/mL: 45.5%
Phytophthora infestans [5]
  inhibition at 1 µg/mL: 0%
Phytophthora infestans [6]
  inhibition at 1 µg/mL: 100%
Phytophthora infestans [7]
  MIC: 0.1 µg/mL (≈ 0.262 µM)
  IC50: 0.03 µg/mL (≈ 0.0786 µM)
Phytophthora infestans [8]
  Activity: Active
Phytophthora infestans [9]
  inhibition at 10 µg/mL: 100%
Phytophthora infestans [10]
  Activity: Active
Phytophthora infestans [11]
  MIC: 0.1 µg/mL (≈ 0.262 µM)
  IC50: 0.02 µg/mL (≈ 0.0524 µM)
Phytophthora nicotianae
  MIC: 0.1 µg/mL (≈ 0.262 µM)
  IC50: 0.05 µg/mL (≈ 0.131 µM)
Phytophthora palmivora
  MIC: 0.1 µg/mL (≈ 0.262 µM)
  IC50: 0.02 µg/mL (≈ 0.0524 µM)
Phytophthora infestans [12]
  inhibition at 0.1 µg/mL: 95.5%
Phytophthora infestans [13]
  Activity: Active
Phytophthora porri
  MIC: 0.1 µg/mL (≈ 0.262 µM)
  IC50: 0.02 µg/mL (≈ 0.0524 µM)
Phytophthora megasperma
  MIC: 0.1 µg/mL (≈ 0.262 µM)
  IC50: 0.02 µg/mL (≈ 0.0524 µM)
Phytophthora infestans [14]
  Activity: Active
Phytophthora infestans [15]
  inhibition at 10 µg/mL: 0%
Phytophthora infestans [16]
  inhibition: inactive
Phytophthora infestans [17]
  MIC: 0.03 µg/mL (≈ 0.0786 µM)
Phytophthora infestans [17]; read-out: I50
  IC50: 0.03 µg/mL (≈ 0.0786 µM)
Phytophthora cactorum
  MIC: 0.03 µg/mL (≈ 0.0786 µM)
  IC50: 0.03 µg/mL (≈ 0.0786 µM)
Phytophthora infestans [18]
  inhibition at 10 µg/mL: 97.6%
Phytophthora infestans [19]
  inhibition: inactive
Phytophthora infestans [20]
  inhibition at 1 µg/mL: 96.8%
Phytophthora katsurae
  MIC: 0.03 µg/mL (≈ 0.0786 µM)
  IC50: 0.04 µg/mL (≈ 0.105 µM)
Phytophthora infestans [21]
  inhibition at 0.1 µg/mL: 98.6%
Phytophthora infestans [22]
  inhibition at 0.1 µg/mL: 45.2%
Phytophthora infestans [23]
  Activity: Active
Phytophthora infestans [24]
  inhibition: inactive
Phytophthora infestans [25]
  Activity: Active
Phytophthora infestans [26]
  MIC: 0.03 µg/mL (≈ 0.0786 µM)
  IC50: 0.03 µg/mL (≈ 0.0786 µM)
Phytophthora capsici
  MIC: 0.03 µg/mL (≈ 0.0786 µM)
  IC50: 0.01 µg/mL (≈ 0.0262 µM)

## COCC(=O)N(c1c(C)cccc1C)C(C)C(=O)OC (configuration not stated) [METALAXYL]
Phytophthora infestans [3]
  MIC: > 10 µg/mL
  IC50: 0.05 µg/mL (≈ 0.179 µM)
Phytophthora infestans [7]
  MIC: 3 µg/mL (≈ 10.7 µM)
  IC50: 0.15 µg/mL (≈ 0.537 µM)
Phytophthora infestans [11]
  MIC: 0.3 µg/mL (≈ 1.07 µM)
  IC50: 0.09 µg/mL (≈ 0.322 µM)
Phytophthora nicotianae
  MIC: > 3 µg/mL
  IC50: 0.08 µg/mL (≈ 0.286 µM)
Phytophthora palmivora
  MIC: > 3 µg/mL
  IC50: 0.54 µg/mL (≈ 1.93 µM)
Phytophthora porri
  MIC: > 3 µg/mL
  IC50: 0.08 µg/mL (≈ 0.286 µM)
Phytophthora megasperma
  MIC: > 100 µg/mL
  IC50: 0.34 µg/mL (≈ 1.22 µM)
Phytophthora cactorum
  MIC: 0.3 µg/mL (≈ 1.07 µM)
  IC50: 0.03 µg/mL (≈ 0.107 µM)
Phytophthora katsurae
  MIC: > 100 µg/mL
  IC50: 0.46 µg/mL (≈ 1.65 µM)
Phytophthora infestans [26]
  MIC: > 10 µg/mL
  IC50: 0.21 µg/mL (≈ 0.752 µM)
Phytophthora capsici
  MIC: > 3 µg/mL
  IC50: 0.62 µg/mL (≈ 2.22 µM)
